In the NIST ThermoML archive (doi:10.1016/j.jct.2016.05.015):

Experiment: xn = mol fraction of the nth substance listed
Settings: 100 kPa, Liquid; for viscosity: Capillary tube (Ostwald / Ubbelohde) method; for speed of sound: Frequency=2 MHz, Linear variable-path acoustic interferometer; for mass density: Vibrating tube method

Nc1cccc(Cl)c1 [3-chlorobenzenamine] + Brc1ccccc1
Settings | mass density [kg/m3] | speed of sound [m/s] | viscosity [mPa·s]
303.15 K, x1 = 0.0902 | 1457.14 | 1162.5 | 1.364
303.15 K, x1 = 0.1842 | 1431.71 | 1191.5 | 1.741
303.15 K, x1 = 0.2789 | 1406 | 1222.1 | 2.101
303.15 K, x1 = 0.3759 | 1379.47 | 1255.1 | 2.454
303.15 K, x1 = 0.4745 | 1352.34 | 1290.5 | 2.795
303.15 K, x1 = 0.5763 | 1324.09 | 1329.2 | 3.131
303.15 K, x1 = 0.6782 | 1295.62 | 1370.2 | 3.446
303.15 K, x1 = 0.7852 | 1265.62 | 1416 | 3.752
303.15 K, x1 = 0.8914 | 1235.79 | 1464.5 | 4.022
303.15 K, x1 = 1 | 1205.32 | 1517.5 | 4.255
308.15 K, x1 = 0.0902 | 1451.19 | 1148.3 | 1.307
308.15 K, x1 = 0.1842 | 1425.93 | 1177.1 | 1.65
308.15 K, x1 = 0.2789 | 1400.36 | 1207.4 | 1.976
308.15 K, x1 = 0.3759 | 1373.99 | 1240.2 | 2.291
308.15 K, x1 = 0.4745 | 1346.99 | 1275.4 | 2.593
308.15 K, x1 = 0.5763 | 1318.91 | 1313.8 | 2.888
308.15 K, x1 = 0.6782 | 1290.63 | 1354.7 | 3.166
308.15 K, x1 = 0.7852 | 1260.78 | 1400.3 | 3.427
308.15 K, x1 = 0.8914 | 1231.09 | 1448.6 | 3.657
308.15 K, x1 = 1 | 1200.75 | 1501.2 | 3.842
313.15 K, x1 = 0.0902 | 1444.19 | 1134.9 | 1.223
313.15 K, x1 = 0.1842 | 1419.21 | 1163 | 1.533
313.15 K, x1 = 0.2789 | 1393.88 | 1192.8 | 1.826
313.15 K, x1 = 0.3759 | 1367.75 | 1224.9 | 2.104
313.15 K, x1 = 0.4745 | 1340.99 | 1259.3 | 2.372
313.15 K, x1 = 0.5763 | 1313.18 | 1296.9 | 2.632
313.15 K, x1 = 0.6782 | 1285.16 | 1336.9 | 2.876
313.15 K, x1 = 0.7852 | 1255.6 | 1381.6 | 3.105
313.15 K, x1 = 0.8914 | 1226.16 | 1428.7 | 3.293
313.15 K, x1 = 1 | 1196.02 | 1480.3 | 3.43
318.15 K, x1 = 0.0902 | 1437.77 | 1124.6 | 1.155
318.15 K, x1 = 0.1842 | 1412.99 | 1152.3 | 1.437
318.15 K, x1 = 0.2789 | 1387.82 | 1181.7 | 1.692
318.15 K, x1 = 0.3759 | 1361.85 | 1213.3 | 1.934
318.15 K, x1 = 0.4745 | 1335.26 | 1247.3 | 2.165
318.15 K, x1 = 0.5763 | 1307.62 | 1284.5 | 2.388
318.15 K, x1 = 0.6782 | 1279.81 | 1324 | 2.595
318.15 K, x1 = 0.7852 | 1250.46 | 1368 | 2.786
318.15 K, x1 = 0.8914 | 1221.22 | 1414.5 | 2.934
318.15 K, x1 = 1 | 1191.25 | 1464.8 | 3.022
